Experimental data reported in patent US5344831A, “Diazabicyclo derivatives” (Nisshin Flour Milling Co., Ltd., priority 1992, dated 1994).
Where a name gives a salt, the structure may show the parent alone.

Tests used:
5-HT3 receptors = assay: antagonism of the von Bezold-Jarisch reflex (bradycardia) induced by 5-HT in the anaesthetised rat; format: in vivo; conditions: 5-HT 30 μg/kg given 5 min later, tested as hydrochloride salts
Procedure: Temporary bradycardia is induced by administration of 5-HT (serotonin) to anaesthetised rats via jugular vein (yon Bezold Jarisch Reflex) (A. S. Paintal, Physiol. Rev., 53, 159-210 (1973 ) ).
The compounds of the present invention were evaluated for antagonism of the yon Bezold-Jarisch reflex induced by 5-HT in the anaesthetised rat according to the following method.
Rats were anaesthetised with urethane (1 g/kg, intraperitoneally ) and blood pressure and heart rate recorded from left femoral artery. Percent inhibition was calculated from bradycardia induced by 5-HT (30 μg/kg ) given 5 minutes following intrajugular administration of a compound of the invent ion, taking the bradycardia induced by the intrajugular administration of 5-HT. The compounds of the present invention were tested in the form of their hydrochloride salts.

nausea and vomiting = conditions: intravenous administration at high dose; Gralla et al, N. Engl. J. Med. 305, 905-909 (1981); cited from earlier work

Compound | Percent Inhibition (5-HT3 receptors; 0.1 μg/kg i.v.) [%] | Percent Inhibition (5-HT3 receptors; 1.0 μg/kg i.v.) [%] | Percent Inhibition (5-HT3 receptors; 10 μg/kg i.v.) [%] | Percent Inhibition (5-HT3 receptors; 0.01 μg/kg i.v.) [%] | prevention of nausea and vomiting (nausea and vomiting)
CN1C[C@H]2C[C@@H](NC(=O)c3nn(CC#N)c4ccccc34)C[C@@H](C1)N2C [Example 10, endo-3,9-Dimethyl-3,9-diazabicyclo[3.3.1]non-7-yl 1-cyanomethylindazole-3-carboxamide] | 37 | 100 |  |  | 
COc1ccc(Cn2nc(C(=O)N[C@@H]3C[C@@H]4CN(C)C[C@H](C3)N4C)c3ccccc32)cc1 [Example 5] | 29 | 44 | 91 |  | 
C=CCCCCCCn1nc(C(=O)N[C@@H]2C[C@@H]3CN(C)C[C@H](C2)N3C)c2ccccc21 [Example 6, endo-3,9-Dimethyl-3,9-diazabicyclo[3.3.1]non-7-yl 1-(7octenyl) indazole-3-carboxamide] | 19 | 35 | 87 |  | 
CC(=O)N1C[C@H]2C[C@@H](NC(=O)c3n[nH]c4ccccc34)C[C@@H](C1)N2C [Example 28, endo-3-Acetyl-9-methyl-3,9-diazabicyclo[3.3.1]non-7-yl 1H-indazola-3-carboxamide] | 23 | 71 |  |  | 
CN1C[C@H]2C[C@@H](NC(=O)c3nn(Cc4ccc(N)cc4)c4ccccc34)C[C@@H](C1)N2C [Example 20, endo-3,9-Dimethyl-3,9-diazabicyclo[3.3.1]non-7-yl 1-(4aminobenzyl) indazole-3-carboxamide] | 73 |  |  | 51 | 
C#CCn1nc(C(=O)N[C@@H]2C[C@@H]3CN(C)C[C@H](C2)N3C)c2ccccc21 [Example 7, endo-3,9-Dimethyl-3,9-diazabicyclo[3.3-1]non-7-Yl 1-(2propynyl) indazole-3-carboxamide] | 30 | 83 |  |  | 
CN1C[C@H]2C[C@@H](NC(=O)c3nn(Cc4ccccn4)c4ccccc34)C[C@@H](C1)N2C [Example 15, endo-3,9-Dimethyl-3,9-diazabicyclo[3.3.1]non-7-yl 1-(2-pyridylmethyl) indazole-3-carboxamide] | 47 |  |  |  | 
CC(C)=CCn1nc(C(=O)N[C@@H]2C[C@@H]3CN(C)C[C@H](C2)N3C)c2ccccc21 [Example 8, endo-3,9-Dimethyl-3,9-diazabicyclo[3.3.1]non-7-yl 1-(3-methyl-2-butenyl) indazole-3-carboxamide] | 48 | 100 |  |  | 
COC(=O)Cn1nc(C(=O)N[C@@H]2C[C@@H]3CN(C)C[C@H](C2)N3C)c2ccccc21 [Example 16, endo-3,9-Dimethyl-3,9-diazabicyclo[3.3.1]non-7-yl 1-methoxycarbonylmethylindazole-3-carboxamide] | 34 |  | 88 |  | 
CN1C[C@H]2C[C@@H](NC(=O)c3nn(Cc4ccc([N+](=O)[O-])cc4)c4ccccc34)C[C@@H](C1)N2C [Example 9, endo-3,9-Dimethyl-3,9-diazabicyclo[3.3.1]non-7-yl 1-(4nitrobenzyl) indazole-3-carboxamide] | 41 | 96 |  | 14 | 
CN1C[C@H]2C[C@@H](NC(=O)c3n[nH]c4ccccc34)C[C@@H](C1)N2Cc1ccccc1 [Example 24, endo-9-Benzyl-3-methyl-3,9-diazabicyclo[3.3.1]non-7-yl 1H-indazole-3-carboxamide] | 35 |  |  |  | 
CN1C[C@H]2C[C@@H](NC(=O)c3nn(Cc4nc(N)nc(N)n4)c4ccccc34)C[C@@H](C1)N2C [Example 21] | 38 | 85 |  | 21 | 
CC(C)CN1C[C@H]2C[C@@H](NC(=O)c3n[nH]c4ccccc34)C[C@@H](C1)N2C [Example 29, endo-3-Isobutyl-9-methyl-3,9-diazabicyclo[3.3.1]non-7-yl 1H-indazole-3-carboxamide] | 81 |  |  | 27 | 
CN1C[C@H]2C[C@@H](NC(=O)c3nn(Cc4ccccc4[N+](=O)[O-])c4ccccc34)C[C@@H](C1)N2C [Example 14, endo-3,9-Dimethyl-3,9-diazabicyclo[3.3.1]non-7-yl 1-(2-nitrobenzyl) indazole-3-carboxamide] | 18 | 97 |  |  | 
CC(C)COC(=O)n1nc(C(=O)N[C@@H]2C[C@@H]3CN(C)C[C@H](C2)N3C)c2ccccc21 [Example 18, endo-3,9-Dimethyl-3,9-diazabicyclo[3.3.1]non-7-yl 1-isobutoxycarbonylindazole-3-carboxamide] | 23 | 53 |  |  | 
CCOCCN1C[C@H]2C[C@@H](NC(=O)c3n[nH]c4ccccc34)C[C@@H](C1)N2C [Example 30, endo-3-(2-Ethoxyethyl)-9-methyl-3,9-diazabicyclo[3.3.1]non-7-yl 1H-indazole-3-carboxamide] | 52 | 100 |  |  | 
CN1[C@@H]2C[C@@H](NC(=O)c3n[nH]c4ccccc34)C[C@H]1CN(Cc1ccc(F)cc1)C2 [Example 27, endo-3-(4-Fluorobenzyl)-9-methyl-3,9-diazabicyclo[3.3.1]non-7-yl 1H-indazole-3-carboxamide] | 75 | 98 |  |  | 
CN1C[C@H]2C[C@@H](NC(=O)c3nn(Cc4cccc(Cl)c4)c4ccccc34)C[C@@H](C1)N2C [Example 13, endo-3,9-Dimethyl-3,9-diazabicyclo[3.3.1]non-7-yl 1-(3-chlorobenzyl)indazole-3-carboxamide] | 27 | 71 |  |  | 
CC(=O)Cn1nc(C(=O)N[C@@H]2C[C@@H]3CN(C)C[C@H](C2)N3C)c2ccccc21 [Example 12, endo-3,9-Dimethyl-3,9-diazabicyclo[3.3.1]non-7-yl 1-(2-oxopropyl) indazole-3-carboxamide] | 57 | 72 |  | 45 | 
C=CCN1C[C@H]2C[C@@H](NC(=O)c3n[nH]c4ccccc34)C[C@@H](C1)N2C [Example 26, endo-3-Allyl-9-methyl-3,9-diazabicyclo[3.3.1]non-7-yl 1H-indazole-3-carboxamide] | 38 |  |  |  | 
CN1[C@@H]2CNC[C@H]1C[C@@H](NC(=O)c1n[nH]c3ccccc13)C2 [Example 23, endo-9-Methyl-3,9-diazabicyclo[3.3.1]non-7-yl 1H-indazole-3-carboxamide] | 28 | 82 |  |  | 
CN1C[C@H]2C[C@@H](NC(=O)c3n[nH]c4ccccc34)C[C@@H](C1)N2 [Example 25, endo-3-Methyl-3,9-diazabicyclo[3.3.1]non-7-yl 1H-indazole-3-carboxamide] | 21 |  |  |  | 
CC(O)Cn1nc(C(=O)N[C@@H]2C[C@@H]3CN(C)C[C@H](C2)N3C)c2ccccc21 (stereo partly drawn) [Example 19, endo-3,9-Dimethyl-3,9-diazabicyclo[3.3.1]non-7-yl 1-(2hydroxypropyl) indazole-3-carboxamide] | 59 |  |  | 40 | 
CCOCCn1nc(C(=O)N[C@@H]2C[C@@H]3CN(C)C[C@H](C2)N3C)c2ccccc21 [Example 17, endo-3,9-Dimethyl-3,9-diazabicyclo[3.3.1]non-7-yl 1-ethoxyethylindazole-3-carboxamide] | 53 |  |  | 33 | 
C=CCn1nc(C(=O)N[C@@H]2C[C@@H]3CN(C)C[C@H](C2)N3C)c2ccccc21 [Example 2, endo-3,9-Dimethyl-3,9-diazabicyclo[3.3.1]non-7-yl 1-allylindazole-3-carboxamide hydrochloride] | 86 |  |  | 11 | 
CN1C[C@H]2C[C@@H](NC(=O)c3nn(Cc4ccc(C(C)(C)C)cc4)c4ccccc34)C[C@@H](C1)N2C [Example 11, endo-3,9-Dimethyl-3,9-diazabicyclo[3.3.1]non-7-yl 1-(4-tert-butylbenzyl) indazole-3-carboxamide] | 39 | 53 |  |  | 
CN1[C@@H]2C[C@@H](NC(=O)c3n[nH]c4ccccc34)C[C@H]1CN(Cc1ccccc1)C2 [Example 22, endo-3-Benzyl-9-methyl-3,9-diazabicyclo[3.3.1]non-7-yl 1H-indazole-3-carboxamide] | 48 | 87 |  |  | 
CN1C[C@H]2C[C@@H](NC(=O)c3nn(CC4CC4)c4ccccc34)C[C@@H](C1)N2C [Example 4] | 60 |  |  |  | 
CCN(CC)CCNC(=O)c1cc(Cl)c(N)cc1OC [metoclopramide] |  |  |  |  | effectively prevented
CN1C[C@H]2C[C@@H](NC(=O)c3nn(CC4CCCCC4)c4ccccc34)C[C@@H](C1)N2C [Example 3, endo-3,9-Dimethyl-3,9-diazabicyclo[3.3.1]non-7-yl 1-cyclohexylmethylindazole-3-carboxamide] | 13 | 70 |  |  | 
